Data: paper PMC7470033, “In vitro inhibitory effect of lysionotin on the activity of cytochrome P450 enzymes” (Pharmaceutical Biology, 2020)

What was measured:
CYP2C19 [1] = target: T1, CYP2C19 (Homo sapiens, UniProt P33261); test: CYP2C19 inhibition in pooled human liver microsomes (S-mephenytoin 4-hydroxylation); format: in vitro ADME
T1 construct: Pooled HLMs were purchased from BD Biosciences Discovery Labware; tissue BD Biosciences Discovery Labware; host or cells: pooled human liver microsomes
T1 sequence (P33261 whole entry): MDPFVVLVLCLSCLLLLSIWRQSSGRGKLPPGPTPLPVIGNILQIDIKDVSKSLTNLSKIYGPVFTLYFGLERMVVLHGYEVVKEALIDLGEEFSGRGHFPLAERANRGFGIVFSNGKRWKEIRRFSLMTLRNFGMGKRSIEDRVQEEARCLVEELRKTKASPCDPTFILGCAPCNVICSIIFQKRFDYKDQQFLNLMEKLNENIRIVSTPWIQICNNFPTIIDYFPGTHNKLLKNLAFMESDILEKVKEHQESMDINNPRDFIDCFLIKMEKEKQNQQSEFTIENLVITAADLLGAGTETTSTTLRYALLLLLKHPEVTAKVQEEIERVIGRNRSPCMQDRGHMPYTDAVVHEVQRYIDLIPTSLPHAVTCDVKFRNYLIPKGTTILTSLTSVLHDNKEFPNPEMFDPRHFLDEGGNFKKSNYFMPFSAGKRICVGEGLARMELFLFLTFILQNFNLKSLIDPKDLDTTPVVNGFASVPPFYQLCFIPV
Experimental: In this study, lysionotin was incubated with eight CYP isoforms (i.e., 1A2, 3A4, 2A6, 2E1, 2D6, 2C9, 2C19 and 2C8) in pooled human liver microsomes to investigate the interaction between lysionotin and CYPs, which can provide direct evidence for the effect of lysionotin on the activity of CYPs. In vitro, phenacetin (CYP1A2), testosterone (CYP3A4), coumarin (CYP2A6), chlorzoxazone (CYP2E1), dextromethorphan (CYP2D6), diclofenac (CYP2C9), S-mephenytoin (CYP2C19) and paclitaxel (CYP2C8) were used as probe substrates to determine the effects of lysionotin on eight CYP enzymes. In addition, enzyme kinetic studies were conducted to determine the inhibition model of lysionotin on CYP enzymes.
All incubations were performed in triplicate, and the mean values were utilised. The typical incubation systems contained 100 mM potassium phosphate buffer (pH 7.4), NADPH generating system (1 mM NADP^+, 10 mM glucose-6-phosphate, 1 U/mL of glucose-6-phosphate dehydrogenase, and 4 mM MgCl2), the appropriate concentration of HLMs, a corresponding probe substrate and lysionotin (or positive inhibitor for different probe reactions) in a final volume of 200 μL.
The concentration of lysionotin was 100 μM, and the positive inhibitor concentrations were as follows: 10 μM furafylline for CYP1A2, 1 μM ketoconazole for CYP3A4, 10 μM tranylcypromine for CYP2A6, 50 μM clomethiazole for CYP2E1, 10 μM quinidine for CYP2D6, 10 μM sulfaphenazole for CYP2C9, 50 μM tranylcypromine for CYP2C19, 5 μM montelukast for CYP2C8. Probe substrates, positive inhibitors (except for dextromethorphan and quinidine, which were dissolved in water), and lysionotin were dissolved in methanol, with a final concentration of 1% (v/v), and 1% neat methanol was added to the incubations without inhibitor. There was a 3 min preincubation period (at 37 °C) before the reaction was initiated by adding an NADPH-generating system. The reaction was terminated by adding a 100 μL acetonitrile (10% trichloroacetic acid for CYP2A6) internal standard mix, and the solution was placed on ice. The mixture was centrifuged at 12,000 rpm for 10 min, and an aliquot (50 μL) of supernatant was transferred for HPLC analysis. The instrument used in this study was Agilent 1260 series instrument with DAD and FLD detector, and the quantitative assay for the corresponding metabolites was performed as previously reported and the detection conditions are summarised in Table 2 (He et al. [2015]; Lang et al. [2017]; Zhang et al. [2017]). […]
The enzyme kinetic parameters for the probe reaction were estimated from the best fit line, using least-squares linear regression of the inverse substrate concentration versus the inverse velocity (Lineweaver-Burk plots), and the mean values were used to calculate Vmax and Km. Inhibition data from the experiments that were conducted using multiple compound concentrations were represented by Dixon plots, and inhibition constant (Ki) values were calculated using non-linear regression according to the following equation: v=(VmaxS)/(Km(1+I/Ki+S)for competitive inhibition v=(VmaxS)/[(Km+S((1+I/Ki)] for non-competitive inhibition where I is the concentration of the compound, Ki is the inhibition constant, S is the concentration of the substrate, and Km is the substrate concentration at half the maximum velocity (Vmax) of the reaction. The mechanism of the inhibition was inspected using the Lineweaver-Burk plots and the enzyme inhibition models. […]

CYP2C8 = target: T2, CYP2C8 (Homo sapiens, UniProt P10632); test: Time-dependent inhibition study of CYP2C8 in HLMs; format: in vitro ADME; details: 20 μM lysionotin, 0–30 min
T2 construct: Pooled HLMs were purchased from BD Biosciences Discovery Labware; tissue BD Biosciences Discovery Labware; host or cells: pooled human liver microsomes
T2 sequence (P10632 1-490): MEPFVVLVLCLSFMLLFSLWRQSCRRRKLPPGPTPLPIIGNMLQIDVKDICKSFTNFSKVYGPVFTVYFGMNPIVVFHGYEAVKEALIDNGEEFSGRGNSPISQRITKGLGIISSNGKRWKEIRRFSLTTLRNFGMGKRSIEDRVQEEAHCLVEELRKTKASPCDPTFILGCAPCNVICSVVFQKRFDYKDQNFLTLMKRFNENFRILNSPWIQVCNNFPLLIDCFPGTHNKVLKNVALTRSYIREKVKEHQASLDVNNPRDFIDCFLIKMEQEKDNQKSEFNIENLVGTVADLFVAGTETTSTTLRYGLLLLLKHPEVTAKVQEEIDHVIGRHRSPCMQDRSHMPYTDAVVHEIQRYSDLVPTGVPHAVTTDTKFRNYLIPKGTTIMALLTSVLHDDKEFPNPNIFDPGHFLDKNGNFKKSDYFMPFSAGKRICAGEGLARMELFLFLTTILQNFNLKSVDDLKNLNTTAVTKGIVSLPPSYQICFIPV
Experimental: (§1) To determine whether lysionotin could inhibit the activity of CYP3A4, 2C19, and 2C8 in a time-dependent manner, lysionotin (20 μM) was pre-incubated with HLMs (1 mg/mL) in the presence of an NADPH-generating system for 30 min at 37 °C. After incubation, an aliquot (20 μL) was transferred to another incubation tube (final volume 200 μL) containing an NADPH-generating system and probe substrates whose final concentrations were approximate to Km. Then, further incubations were performed to measure the residual activity. After being incubated for 0, 5, 10, 15, and 30 min, the reactions were terminated by adding a 100 μL acetonitrile internal standard mix and then placed on ice; the corresponding metabolites were determined by HPLC.

CYP1A2 = target: T3, CYP1A2 (Homo sapiens, UniProt P05177); test: CYP1A2 inhibition in pooled human liver microsomes (phenacetin O-deethylation); format: in vitro ADME; details: 100 μM lysionotin, pooled HLMs, p > 0.05
T3 construct: Pooled HLMs were purchased from BD Biosciences Discovery Labware; tissue BD Biosciences Discovery Labware; host or cells: pooled human liver microsomes
T3 sequence (P05177 1-516): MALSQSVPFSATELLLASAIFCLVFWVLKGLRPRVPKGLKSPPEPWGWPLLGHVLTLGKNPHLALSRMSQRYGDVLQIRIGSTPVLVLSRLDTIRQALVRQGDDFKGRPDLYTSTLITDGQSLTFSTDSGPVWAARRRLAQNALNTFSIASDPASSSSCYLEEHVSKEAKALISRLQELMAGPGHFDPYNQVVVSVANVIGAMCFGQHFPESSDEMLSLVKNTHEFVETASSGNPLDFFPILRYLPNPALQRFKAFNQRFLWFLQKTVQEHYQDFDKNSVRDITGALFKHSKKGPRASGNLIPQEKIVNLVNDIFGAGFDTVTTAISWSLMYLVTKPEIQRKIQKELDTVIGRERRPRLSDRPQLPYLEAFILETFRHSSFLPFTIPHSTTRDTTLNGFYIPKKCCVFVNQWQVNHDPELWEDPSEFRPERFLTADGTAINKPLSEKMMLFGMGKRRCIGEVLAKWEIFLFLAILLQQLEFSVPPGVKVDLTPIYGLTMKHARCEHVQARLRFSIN
Experimental: (§2) In this study, lysionotin was incubated with eight CYP isoforms (i.e., 1A2, 3A4, 2A6, 2E1, 2D6, 2C9, 2C19 and 2C8) in pooled human liver microsomes to investigate the interaction between lysionotin and CYPs, which can provide direct evidence for the effect of lysionotin on the activity of CYPs. In vitro, phenacetin (CYP1A2), testosterone (CYP3A4), coumarin (CYP2A6), chlorzoxazone (CYP2E1), dextromethorphan (CYP2D6), diclofenac (CYP2C9), S-mephenytoin (CYP2C19) and paclitaxel (CYP2C8) were used as probe substrates to determine the effects of lysionotin on eight CYP enzymes. In addition, enzyme kinetic studies were conducted to determine the inhibition model of lysionotin on CYP enzymes. […]
(§3) The concentration of lysionotin was 100 μM, and the positive inhibitor concentrations were as follows: 10 μM furafylline for CYP1A2, 1 μM ketoconazole for CYP3A4, 10 μM tranylcypromine for CYP2A6, 50 μM clomethiazole for CYP2E1, 10 μM quinidine for CYP2D6, 10 μM sulfaphenazole for CYP2C9, 50 μM tranylcypromine for CYP2C19, 5 μM montelukast for CYP2C8. […] The instrument used in this study was Agilent 1260 series instrument with DAD and FLD detector, and the quantitative assay for the corresponding metabolites was performed as previously reported and the detection conditions are summarised in Table 2 (He et al. [2015]; Lang et al. [2017]; Zhang et al. [2017]). […]

CYP2A6 = target: T4, CYP2A6 (Homo sapiens, UniProt P11509); test: CYP2A6 inhibition in pooled human liver microsomes (coumarin 7-hydroxylation); format: in vitro ADME; details: 100 μM lysionotin, pooled HLMs, p > 0.05
T4 construct: Pooled HLMs were purchased from BD Biosciences Discovery Labware; tissue BD Biosciences Discovery Labware; host or cells: pooled human liver microsomes
T4 sequence (P11509 1-494): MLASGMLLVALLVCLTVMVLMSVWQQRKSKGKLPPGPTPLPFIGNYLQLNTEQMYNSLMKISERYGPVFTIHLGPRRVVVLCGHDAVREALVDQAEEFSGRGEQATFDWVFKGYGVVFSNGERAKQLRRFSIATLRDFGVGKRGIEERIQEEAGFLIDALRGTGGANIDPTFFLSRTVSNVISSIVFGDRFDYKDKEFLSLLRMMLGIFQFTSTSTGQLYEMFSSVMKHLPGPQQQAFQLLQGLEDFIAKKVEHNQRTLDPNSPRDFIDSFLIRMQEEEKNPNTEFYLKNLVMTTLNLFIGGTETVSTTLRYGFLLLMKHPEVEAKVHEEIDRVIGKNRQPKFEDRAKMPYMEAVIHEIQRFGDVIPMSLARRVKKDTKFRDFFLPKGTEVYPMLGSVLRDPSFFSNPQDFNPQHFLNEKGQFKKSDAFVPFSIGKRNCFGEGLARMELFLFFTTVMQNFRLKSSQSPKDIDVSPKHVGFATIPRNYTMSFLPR
Experimental: as §2, §3

CYP2D6 = target: T5, CYP2D6 (Homo sapiens, UniProt P10635); test: CYP2D6 inhibition in pooled human liver microsomes (dextromethorphan O-demethylation); format: in vitro ADME; details: 100 μM lysionotin, pooled HLMs, p > 0.05
T5 construct: Pooled HLMs were purchased from BD Biosciences Discovery Labware; tissue BD Biosciences Discovery Labware; host or cells: pooled human liver microsomes
T5 sequence (P10635 whole entry): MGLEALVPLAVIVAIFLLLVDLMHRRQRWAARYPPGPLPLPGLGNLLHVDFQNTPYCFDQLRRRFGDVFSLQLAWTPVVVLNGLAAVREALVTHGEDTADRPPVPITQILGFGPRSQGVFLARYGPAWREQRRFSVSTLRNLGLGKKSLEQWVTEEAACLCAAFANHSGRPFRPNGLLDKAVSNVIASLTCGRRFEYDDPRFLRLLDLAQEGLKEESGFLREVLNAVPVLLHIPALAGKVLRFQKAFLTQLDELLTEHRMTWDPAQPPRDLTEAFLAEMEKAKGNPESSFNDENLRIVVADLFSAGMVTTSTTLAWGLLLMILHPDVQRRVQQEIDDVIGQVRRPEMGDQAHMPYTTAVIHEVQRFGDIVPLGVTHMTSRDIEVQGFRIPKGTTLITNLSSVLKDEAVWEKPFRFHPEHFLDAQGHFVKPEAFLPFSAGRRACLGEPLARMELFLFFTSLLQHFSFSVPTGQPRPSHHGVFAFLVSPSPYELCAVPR
Experimental: as §2, §3

[2] = design: method as in Liu et al. [2013]; details: oral administration of 50 mg/kg, ref Liu et al. [2013]; cited from earlier work
CYP3A4 = target: T6, CYP3A4 (Homo sapiens, UniProt P08684); test: Time-dependent inhibition study of CYP3A4 in HLMs; format: in vitro ADME
T6 construct: Pooled HLMs were purchased from BD Biosciences Discovery Labware; tissue BD Biosciences Discovery Labware; host or cells: pooled human liver microsomes
T6 sequence (P08684 whole entry): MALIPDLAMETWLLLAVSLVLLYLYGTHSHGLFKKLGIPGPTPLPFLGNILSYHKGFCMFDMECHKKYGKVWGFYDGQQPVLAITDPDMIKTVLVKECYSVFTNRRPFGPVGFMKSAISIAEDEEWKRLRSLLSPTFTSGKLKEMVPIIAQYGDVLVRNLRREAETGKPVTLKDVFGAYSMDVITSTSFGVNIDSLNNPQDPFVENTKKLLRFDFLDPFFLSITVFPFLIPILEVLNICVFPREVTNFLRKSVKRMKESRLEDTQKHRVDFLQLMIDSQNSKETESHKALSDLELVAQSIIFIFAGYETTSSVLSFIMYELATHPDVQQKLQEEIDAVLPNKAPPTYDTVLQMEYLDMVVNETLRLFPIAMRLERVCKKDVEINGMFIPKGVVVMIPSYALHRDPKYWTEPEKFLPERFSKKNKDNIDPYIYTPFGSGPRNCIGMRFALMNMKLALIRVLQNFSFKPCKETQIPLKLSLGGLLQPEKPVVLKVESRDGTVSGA
Experimental: as §1
To determine the KI and Kinact values for the inactivation of CYP3A4, the incubations were conducted using higher probe substrate concentrations (approximately 4-fold Km values) and various concentrations of lysionotin (0–50 μM) after different preincubation times (0–30 min), with a two-step incubation scheme, as described above. The value of KI and Kinact was calculated with the equation 1/Kobs = KI/Kinact*1/[I] + 1/Kinact. Where Kobs is the pseudo-first-order rate constant of inactivation at inactivated concentration [I], Kinact is the maximum inactivation rate (a theoretical value that cannot be experimentally observed), and KI is the inactivated concentration when the rate of inactivation reaches half of Kinact.

CYP2C19 [3] = target: T1, CYP2C19; test: Time-dependent inhibition study of CYP2C19 in HLMs; format: in vitro ADME; details: 20 μM lysionotin, 0–30 min
Experimental: as §1

inhibition model of CYP2C19 (CYP2C19 [1]; Lineweaver-Burk plots, listed as Lysionotin): competitive
Ki (CYP2C19 [1]; competitive model, mephenytoin 50–200 μM, lysionotin 0–50 μM, pooled HLM): 12.4 µM
IC50 (CYP2C19 [1]; pooled HLMs, S-mephenytoin 4-hydroxylation): 25 µM
effect of incubation time on the inhibition of CYP2C8 (CYP2C8): relatively stable
effect on the activity of CYP1A2 (CYP1A2): not affected
effect on the activity of CYP2A6 (CYP2A6): not affected
effect on the activity of CYP2D6 (CYP2D6): not affected
effect of incubation time on the inhibition of CYP3A4 (CYP3A4; 20 μM lysionotin, 0–30 min): time-dependent
CYP3A4 inactivated every minute (CYP3A4; during incubation with lysionotin): about 4.8%
KI (inactivation) (CYP3A4; human, human liver microsomes, probe testosterone (approximately 4-fold Km), lysionotin 0–50 μM, preincubation 0–30 min, NADPH, printed as KI/Kinact): 6.62 µM
Kinact for inactivation of CYP3A4 (CYP3A4; lysionotin 0–50 μM, preincubation 0–30 min, NADPH, printed as KI/Kinact): 0.048 min⁻¹
effect of incubation time on the inhibition of CYP2C19 (CYP2C19 [3]): relatively stable
SMILES: COc1ccc(-c2cc(=O)c3c(O)c(OC)c(O)c(OC)c3o2)cc1 [lysionotin, Lysionotin]
Cmax in rat plasma [2]: 58.4 ± 10.3 ng/mL
